One data set has as its system Myzus persicae. Nature of the data set: Myzus persicae - Test (MYZUPE spray application). The class given is in vivo. Particulars: for mortality at 100 g/ha / mortality at 200 g/ha: Myzus persicae. An excerpt: Myzus persicae—Test; (MYZUPE Spray Application)
Chinese cabbage (Brassica pekinesis) leaf—disks infected with all instars of the green peach aphid (Myzus persicae), are sprayed with a preparation of the active ingredient at the desired concentration.
100% means that all aphids have been killed; 0% means that none of the aphids have been killed.

Another data set relates to Phaedon cochleariae. Put plainly: Phaedon cochleariae Larvae - Test (PHAECO spray application). The class given is in vivo. Particulars: for mortality at 100 g/ha / mortality at 150 g/ha / mortality at 200 g/ha: Phaedon cochleariae. The text has this: Phaedon cochleariae—Test; (PHAECO Spray Application)
Solvent: 78 parts by weight of acetone • 1.5 parts by weight of N,N-dimethylformamide Emulsifier: 0.5 parts by weight of alkylarylpolyglycolether
Once dry, the leaf discs are infested with mustard beetle larvae (Phaedon cochleariae).

A further data set has as its system Spodoptera frugiperda. Nature of the data set: whole plant or invertebrate. As for the experimental part:
Spodoptera frugiperda—Test (SPODFR Spray Application)
Solvent: 78.0 parts by weight acetone • 1.5 parts by weight N,N-dimethylformamide Emulsifier: 0.5 parts by weight alkylarylpolyglycolether
Maize (Zea mais) leaf sections are sprayed with a preparation of the active ingredient of the desired concentration. Once dry, the leaf sections are infested with larvae of the fall armyworm (Spodoptera frugiperda).
After the specified period of time, the mortality in % is determined. 100% means that all caterpillars have been killed and 0% means that none of the caterpillars have been killed.

The test system of another data set is Tetranychus urticae. Nature of the data set: Tetranychus urticae - Test; OP-resistant (TETRUR spray application). The class given is in vivo. The text has this: Tetranychus urticae—Test; OP-Resistant (TETRUR Spray Application)
French beans (Phaseolus vulgaris) which are heavily infested with all stages of the two spotted spidermite (Tetranychus urticae), are sprayed with a preparation of the active ingredient at the desired concentration.

[1] abbreviates: 24 h, read-out: Mortality in % after 1 day obs.
[2] abbreviates: 144 h, read-out: Mortality in % after 6 days obs.
Setting [3] is: 48 h, read-out: Mortality in % after 2 days obs.
The mark [4] stands for this setting: Spodoptera frugiperda, 48 h, read-out: Mortality in % after 2 days obs.
Where [5] appears, read: Spodoptera frugiperda, 144 h, read-out: Mortality in % after 6 days obs.
The mark [6] stands for this setting: Tetranychus urticae, 48 h, read-out: Mortality in % after 2 days obs.
Setting [7] is: 144 h, 100 g/ha, read-out: Mortality in % after 6 days obs.
Setting [8] is: 144 h, 200 g/ha, read-out: Mortality in % after 6 days obs.

Like-named read-outs stand apart in the source and are kept apart here.

Consider `CC(C)c1ccc(F)cc1CN(C(=O)c1c(C(F)F)nn(C)c1F)C1CC1` [A-7, N-cyclopropyl-3-(difluoromethyl)-5-fluoro-N-(5-fluoro-2-isopropylbenzyl)-1-methyl-1H-pyrazole-4-carboxamide], for which the mortality at 100 g/ha in the data set with Myzus persicae (setting [1]), in the data set with Myzus persicae (setting [2]), in the data set with Phaedon cochleariae (setting [3]), with Phaedon cochleariae (setting [2]), with Spodoptera frugiperda (setting [4]) and in the data set on Spodoptera frugiperda (setting [5]) was 0% throughout. Further, the mortality at 100 g/ha in the data set on Tetranychus urticae (setting [6]) was found to be 0%. In addition, the mortality at 200 g/ha in the data set on Myzus persicae (setting [1]), with Myzus persicae (setting [2]), in the data set with Phaedon cochleariae (setting [2]) and in the data set on Tetranychus urticae (setting [6]) was 0% in each case. Further, the mortality at 150 g/ha with Phaedon cochleariae (setting [3]), with Spodoptera frugiperda (setting [4]) and in the data set with Tetranychus urticae (setting [6]) was 0% in each case.
Transfluthrin [B-3A.46]: the “Mortality in % after 1 day obs.” value stood at 0% in the data set with Myzus persicae (20 g/ha) and 80% in the data set with Myzus persicae (100 g/ha). Besides, the “Mortality in % after 6 days obs.” value with Myzus persicae (20 g/ha) is on record as 0%; with Phaedon cochleariae (4 g/ha), 0%; in the data set with Phaedon cochleariae (20 g/ha), 0%; in the data set on Spodoptera frugiperda (0.8 g/ha) it was 33%; in the data set on Spodoptera frugiperda (4 g/ha), 33%; in the data set on Spodoptera frugiperda (20 g/ha), 50%. Further, in the data set on Tetranychus urticae (100 g/ha, single active ingredient, 6 days), the “Mortality in % after 6 days obs.” value is recorded as 0%. Moreover, in the data set on Phaedon cochleariae (100 g/ha), the “Mortality in % after 2 days obs.” value came to 67%.
As to `CC(C)c1ccc(Cl)cc1CN(C(=O)c1c(C(F)F)nn(C)c1F)C1CC1` [A-5, N-(5-chloro-2-isopropylbenzyl)-N-cyclopropyl-3-(difluoromethyl)-5-fluoro-1-methyl-1H-pyrazole-4-carboxamide], the mortality at 100 g/ha with Myzus persicae (24 h, 100 g/ha, read-out: Mortality in % after 1 day obs.) amounted to 0%; in the data set with Myzus persicae (setting [7]), 0%; in the data set with Phaedon cochleariae (48 h, 100 g/ha, read-out: Mortality in % after 2 days obs.), 0%; in the data set with Phaedon cochleariae (setting [7]) it was 0%; in the data set on Spodoptera frugiperda (setting [4]) it was 0%; with Spodoptera frugiperda (setting [5]), 0%. Further, the mortality at 200 g/ha was determined as 0% with Myzus persicae (24 h, 200 g/ha, read-out: Mortality in % after 1 day obs.); 0% with Myzus persicae (setting [8]); 0% in the data set with Phaedon cochleariae (setting [8]); 0% with Spodoptera frugiperda (setting [4]); 0% in the data set with Spodoptera frugiperda (setting [5]); 0% in the data set with Tetranychus urticae (Tetranychus urticae, 144 h, 200 g/ha, single active ingredient, 6 days, read-out: Mortality in % after 6 days obs.). In addition, in the data set with Phaedon cochleariae (48 h, 150 g/ha, read-out: Mortality in % after 2 days obs.), the mortality at 150 g/ha is 0%.

As usually defined, the mortality is the percentage killed.

The values above are taken from US20140051576A1, “ACTIVE COMPOUND COMBINATIONS COMPRISING A (THIO)CARBOXAMIDE DERIVATIVE AND AN INSECTICIDAL OR ACARICIDAL OR NEMATICIDAL ACTIVE COMPOUND” (priority 2011, published 2014).
